{"source": "paper PMC7854729", "about": "(Nature Communications, 2021)", "key": {"SARS-CoV-2 PLpro": {"molecular_target": "SARS-CoV-2 PLpro (Severe acute respiratory syndrome coronavirus 2, UniProt P0DTD1)", "test": "biochemical"}, "SARS-CoV-2": {"tested_on": "SARS-CoV-2", "test": "microbe, parasite or virus in culture", "assay_type": "cell-based, SARS-CoV-2 (nCoV/Washington/1/2020) in Vero E6 cells", "conditions": "for EC50: Severe acute respiratory syndrome coronavirus 2, Vero C1008, 24 h; for Percent Spike Positive Cells: relative to DMSO treated cells, single replicates"}, "SARS-CoV": {"tested_on": "SARS-CoV", "conditions": "cited from earlier work"}, "PLpro from MERS": {"tested_on": "PLpro from MERS", "conditions": "cited from earlier work"}, "Vero E6 cells": {"tested_on": "Vero E6 cells", "conditions": "cited from earlier work"}}, "note": "Values joined by “and” are separate entries in the source; they are usually repeats but may differ in a detail not shown here. Equal values may be shown once. Read-outs that look alike come from different tables or passages of the source."}
{"smiles": "CCCCNC(=O)Nc1ccc(C)c(C(=O)N[C@H](C)c2cccc3ccccc23)c1", "note": "[Compound 5, 5-(butylcarbamoylamino)-2-methyl-N-[(1R)-1-naphthalen-1-ylethyl]benzamide]", "values": [{"measurement": "IC50", "setting": "SARS-CoV-2 PLpro; IC50", "result": "16.8 µM and 32.8 µM"}, {"measurement": "PLpro assay signal (source data Figure 2, single replicates)", "setting": "SARS-CoV-2 PLpro; Log(M) -3.30103, listed as 5 (Snyder539)", "result": "225 and 216 and 235"}, {"measurement": "PLpro assay signal (source data Figure 2, single replicates)", "setting": "SARS-CoV-2 PLpro; Log(M) -3.60206, listed as 5 (Snyder539)", "result": "256 and 292 and 307"}, {"measurement": "PLpro assay signal (source data Figure 2, single replicates)", "setting": "SARS-CoV-2 PLpro; Log(M) -4, listed as 5 (Snyder539)", "result": "289 and 427 and 447"}, {"measurement": "PLpro assay signal (source data Figure 2, single replicates)", "setting": "SARS-CoV-2 PLpro; Log(M) -4.30103, listed as 5 (Snyder539)", "result": "464 and 626 and 554"}, {"measurement": "PLpro assay signal (source data Figure 2, single replicates)", "setting": "SARS-CoV-2 PLpro; Log(M) -4.69897, listed as 5 (Snyder539)", "result": "802 and 736 and 827"}, {"measurement": "PLpro assay signal (source data Figure 2, single replicates)", "setting": "SARS-CoV-2 PLpro; Log(M) -5, listed as 5 (Snyder539)", "result": "945 and 917 and 894"}, {"measurement": "PLpro assay signal (source data Figure 2, single replicates)", "setting": "SARS-CoV-2 PLpro; Log(M) -5.39794, listed as 5 (Snyder539)", "result": "1120 and 1187 and 1137"}, {"measurement": "PLpro assay signal (source data Figure 2, single replicates)", "setting": "SARS-CoV-2 PLpro; Log(M) -5.69897, listed as 5 (Snyder539)", "result": "1190 and 1202 and 1324"}, {"measurement": "PLpro assay signal (source data Figure 2, single replicates)", "setting": "SARS-CoV-2 PLpro; Log(M) -6.09691, listed as 5 (Snyder539)", "result": "1485 and 1470 and 1518"}, {"measurement": "PLpro assay signal (source data Figure 2, single replicates)", "setting": "SARS-CoV-2 PLpro; Log(M) -6.39794, listed as 5 (Snyder539)", "result": "1389 and 1269 and 1337"}, {"measurement": "EC50", "setting": "SARS-CoV-2; read-out: EC50", "result": 2.5, "unit": "µM"}, {"measurement": "inhibition of virus replication", "setting": "SARS-CoV-2; Vero E6, SARS-CoV-2", "result": "inhibiting virus replication"}, {"measurement": "Percent Spike Positive Cells", "setting": "SARS-CoV-2; [Drug] 0.1 uM", "result": 115, "unit": "%"}, {"measurement": "Percent Spike Positive Cells", "setting": "SARS-CoV-2; [Drug] 1 uM", "result": 115, "unit": "%"}, {"measurement": "Percent Spike Positive Cells", "setting": "SARS-CoV-2; [Drug] 10 uM", "result": "69% and 115% and 92%"}]}
{"smiles": "Cc1ccc(NC(=O)NC(N)=O)cc1C(=O)N[C@H](C)c1cccc2ccccc12", "note": "[Compound 2, 5-carbamylurea-2-methyl-N-[(1R)-1-naphthalen-1-ylethyl]benzamide]", "values": [{"measurement": "PLpro assay signal (source data Figure 2, single replicates)", "setting": "SARS-CoV-2 PLpro; Log(M) -3.69897, listed as 2 (Snyder495)", "result": "60 and 59 and 86"}, {"measurement": "PLpro assay signal (source data Figure 2, single replicates)", "setting": "SARS-CoV-2 PLpro; Log(M) -4, listed as 2 (Snyder495)", "result": "70 and 66 and 64"}, {"measurement": "PLpro assay signal (source data Figure 2, single replicates)", "setting": "SARS-CoV-2 PLpro; Log(M) -4.39794, listed as 2 (Snyder495)", "result": "92 and 85 and 99"}, {"measurement": "PLpro assay signal (source data Figure 2, single replicates)", "setting": "SARS-CoV-2 PLpro; Log(M) -4.69897, listed as 2 (Snyder495)", "result": "136 and 126 and 144"}, {"measurement": "PLpro assay signal (source data Figure 2, single replicates)", "setting": "SARS-CoV-2 PLpro; Log(M) -5.09691, listed as 2 (Snyder495)", "result": "203 and 179 and 181"}, {"measurement": "PLpro assay signal (source data Figure 2, single replicates)", "setting": "SARS-CoV-2 PLpro; Log(M) -5.39794, listed as 2 (Snyder495)", "result": "314 and 305 and 289"}, {"measurement": "PLpro assay signal (source data Figure 2, single replicates)", "setting": "SARS-CoV-2 PLpro; Log(M) -5.79588, listed as 2 (Snyder495)", "result": "365 and 343 and 315"}, {"measurement": "PLpro assay signal (source data Figure 2, single replicates)", "setting": "SARS-CoV-2 PLpro; Log(M) -6.09691, listed as 2 (Snyder495)", "result": "476 and 447 and 368"}, {"measurement": "PLpro assay signal (source data Figure 2, single replicates)", "setting": "SARS-CoV-2 PLpro; Log(M) -6.49485, listed as 2 (Snyder495)", "result": "414 and 419 and 416"}, {"measurement": "PLpro assay signal (source data Figure 2, single replicates)", "setting": "SARS-CoV-2 PLpro; Log(M) -6.79588, listed as 2 (Snyder495)", "result": "421 and 453 and 465"}, {"measurement": "IC50", "setting": "SARS-CoV-2 PLpro; pH 7.3, read-out: IC50", "result": 5.1, "unit": "µM"}, {"measurement": "inhibition of virus replication", "setting": "SARS-CoV-2; Vero E6, SARS-CoV-2", "result": "failed"}]}
{"smiles": "Cc1ccc(N)cc1C(=O)N[C@H](C)c1cccc2ccccc12", "note": "[Compound 1, 5-amino-2-methyl-N-[(1R)-1-naphthalen-1-ylethyl]benzamide]", "values": [{"measurement": "potency in SARS-CoV-infected Vero E6 cells", "setting": "SARS-CoV", "result": "good potency"}, {"measurement": "inhibition of virus replication", "setting": "SARS-CoV-2", "result": "inhibiting virus replication"}, {"measurement": "EC50", "setting": "SARS-CoV-2", "result": "1.4 ± 0.65", "unit": "µM"}, {"measurement": "inhibition of MERS PLpro", "setting": "PLpro from MERS", "result": "not inhibited"}, {"measurement": "cytotoxicity", "setting": "Vero E6 cells", "result": "low cytotoxicity"}]}
{"smiles": "CCCCC(=O)Nc1ccc(C)c(C(=O)N[C@H](C)c2cccc3ccccc23)c1", "note": "[Compound 7, 5-pentanoylamino-2-methyl-N-[(1R)-1-naphthalen-1-ylethyl]benzamide]", "values": [{"measurement": "PLpro assay signal (source data Figure 2, single replicates)", "setting": "SARS-CoV-2 PLpro; Log(M) -3.30103, listed as 7 (Snyder514)", "result": "189 and 225 and 281"}, {"measurement": "PLpro assay signal (source data Figure 2, single replicates)", "setting": "SARS-CoV-2 PLpro; Log(M) -3.60206, listed as 7 (Snyder514)", "result": "257 and 276 and 274"}, {"measurement": "PLpro assay signal (source data Figure 2, single replicates)", "setting": "SARS-CoV-2 PLpro; Log(M) -4, listed as 7 (Snyder514)", "result": "332 and 331 and 303"}, {"measurement": "PLpro assay signal (source data Figure 2, single replicates)", "setting": "SARS-CoV-2 PLpro; Log(M) -4.30103, listed as 7 (Snyder514)", "result": "346 and 354 and 361"}, {"measurement": "PLpro assay signal (source data Figure 2, single replicates)", "setting": "SARS-CoV-2 PLpro; Log(M) -4.69897, listed as 7 (Snyder514)", "result": "672 and 717 and 815"}, {"measurement": "PLpro assay signal (source data Figure 2, single replicates)", "setting": "SARS-CoV-2 PLpro; Log(M) -5, listed as 7 (Snyder514)", "result": "856 and 922 and 1036"}, {"measurement": "PLpro assay signal (source data Figure 2, single replicates)", "setting": "SARS-CoV-2 PLpro; Log(M) -5.39794, listed as 7 (Snyder514)", "result": "1160 and 1233 and 1196"}, {"measurement": "PLpro assay signal (source data Figure 2, single replicates)", "setting": "SARS-CoV-2 PLpro; Log(M) -5.69897, listed as 7 (Snyder514)", "result": "1260 and 1362 and 1272"}, {"measurement": "PLpro assay signal (source data Figure 2, single replicates)", "setting": "SARS-CoV-2 PLpro; Log(M) -6.09691, listed as 7 (Snyder514)", "result": "1429 and 1375 and 1302"}, {"measurement": "PLpro assay signal (source data Figure 2, single replicates)", "setting": "SARS-CoV-2 PLpro; Log(M) -6.39794, listed as 7 (Snyder514)", "result": "1493 and 1486 and 1598"}, {"measurement": "IC50", "setting": "SARS-CoV-2 PLpro; pH 7.3, read-out: IC50", "result": "12.7 ± 1.3", "unit": "µM"}, {"measurement": "EC50", "setting": "SARS-CoV-2; read-out: EC50", "result": "5.2 ± 4.2", "unit": "µM"}, {"measurement": "inhibition of virus replication", "setting": "SARS-CoV-2; Vero E6, SARS-CoV-2", "result": "inhibiting virus replication"}, {"measurement": "Percent Spike Positive Cells", "setting": "SARS-CoV-2; [Drug] 0.1 uM", "result": "115% (2×) and 92%"}, {"measurement": "Percent Spike Positive Cells", "setting": "SARS-CoV-2; [Drug] 1 uM", "result": "69% (2×) and 115%"}, {"measurement": "Percent Spike Positive Cells", "setting": "SARS-CoV-2; [Drug] 10 uM", "result": "46% and 23% and 35%"}]}
